Results as given in patent US6610676B1, “Nitrate esters of corticoid compounds and pharmaceutical applications thereof” (Nicox S.A., priority 1996, dated 2003).
Marks after values point to notes of the source that are not given here.

Tests used:
[1] = test system: mice of the Swiss strain; assay: Acute toxicity study, single oral dose; type: in vivo; settings: single oral dose 50 mg/kg, 10 Swiss mice, 14 days observation
Text: The acute toxicity of the product from Example 1A was roughly evaluated by orally administering a single dose of substance to a group of 10 mice of the Swiss strain.
Death incidence and appearance of toxic symptoms were observed during a period of 14 days after the compound administration.

[2] = test system: nitroxysynthetase; assay: LPS-induced nitroxysynthetase activity in rat neutrophils and stomach; type: in vivo, rats; settings: 10 mg/kg i.p., LPS 5 mg/kg i.v., 4 h; compared to vehicle group (vehicle = 100)
[3] = test system: parietal bone from rat foetus; assay: Bone toxicity, bone tissue grown in vitro; type: cell-based; settings: 10 nmol (table), 96 h incubation, compared to initial value
Procedure: Bone tissues (parietal bone from rat foetus) grown in vitro according to the method described by Doherty et al. (“The effect of glucocorticoids on osteoblast function. The effect of corticosterone on osteoblast, expression of beta-I integrins”, Journal of Bone and Joint Surgery, Series A77/3, 396-404, 1995) was used. […]
Ninety six hours later calcium content and bone dry weight were measured.

[4] = test system: Male Sprague-Dawley rats; assay: Gastric tolerability (safety); type: in vivo; settings: 24 h, lesion scale 0 = absent to 4 = severe and numerous ulcers
Procedure: Male Sprague-Dawley rats fasted for 24 hours were treated with 5 to 10 mg/kg of intraperitoneal hydrocortisone or HCN.
Twenty-four hours later the animals were sacrified, the stomach was removed and tissue was grossly examined for the presence of lesions as described by Del Soldato et al.: “The influence of fasting and cimetidine on the relationship between ulcerogenic and anti-inflammatory properties of […]”, Br.J.Pharmacol. 67, 33-37, 1979. The degree of severity of the disease was evaluated according to common methods and expressed as arbitrary values.

[5] = test system: male rats of Lewis strain; assay: Antiarthritic activity, adjuvant arthritis induced by Mycobacterium butyricum; type: in vivo; settings: day 21, inhibition of arthritis score vs vehicle group
[6] = test system: Male Wistar rats; assay: Angiostatic activity, rat sponge model, 133Xe clearance; type: in vivo; settings: for SPLEEN weight / THYMUS weight: 10 mg/kg s.c. day 1 to 13, day 14; for 133Xe clearance (%): 10 mg/kg s.c. day 1 to 13, measured at day 14, clearance for 6 minutes as % of initial value
[7] = test system: conscious Long Evans rats; assay: Cardiovascular parameters in conscious rats; type: in vivo; settings: 10 mg/kg s.c., 4 h after treatment; for BLOOD PRESSURE: compared to vehicle group (101 ± 2 mm Hg); for HEART RATE (%): compared to vehicle group (324 ± 7 beats per minute)
Procedure: The effect of the test products on some cardiovascular parameters was studied in conscious Long Evans rats (350 to 450 g) which were appropriately monitored, as described by Gardiner et al.: “Influence of dexamethasone on the regional haemodynamic responses to lipopolysaccharide in conscious rats: effect of the non-selective endothelin antagonist: SB 209670”, Br.J. Pharmacology 117, 49P, 1996. The animals were treated with the vehicle (physiologic saline solution, 0,9% sodium chloride, s.c.) subcutaneous hydrocortisone or HCN (10 mg/kg). Heart rate and blood pressure were recorded 4 hours after treatment.

C[C@]12CCC(=O)C=C1CC[C@@H]1[C@@H]2[C@@H](O)C[C@@]2(C)[C@H]1CC[C@]2(O)C(=O)COC(=O)CCCO[N+](=O)[O-] [HCN, Hydrocortisone 4-Nitroxybutanoate]
Acute toxicity (death incidence and toxic symptoms) [1]: no sign of apparent toxicity | NITROXYSYNTHETASE ACTIVITY [2]: 62* per cent | Calcium Δ% [3]: 287% | DRY TISSUE WEIGHT Δ% [3]: 149% | GASTRIC TOLERABILITY ([4]; 5 mg/kg i.p.): 0.5* arbitrary values | GASTRIC TOLERABILITY ([4]; 10 mg/kg i.p.): 1.2* arbitrary values | ANTIARTHRITIC ACTIVITY (%) ([5]; 5 mg/kg i.p.): 45% | ANTIARTHRITIC ACTIVITY (%) ([5]; 10 mg/kg i.p.): 62% | SPLEEN weight [6]: 673 ± 38 mg | THYMUS weight [6]: 297 ± 31 mg | 133Xe clearance (%) [6]: 22* % | BLOOD PRESSURE [7]: 103 per-cent | HEART RATE (%) [7]: 98%

C[C@]12CCC(=O)C=C1CC[C@@H]1[C@@H]2[C@@H](O)C[C@@]2(C)[C@H]1CC[C@]2(O)C(=O)CO [HYDROCORTISONE, hydrocortisone, reference compound]
NITROXYSYNTHETASE ACTIVITY [2]: 55* per cent | Calcium Δ% [3]: 70° % | DRY TISSUE WEIGHT Δ% [3]: 95° % | GASTRIC TOLERABILITY ([4]; 5 mg/kg i.p.): 2.0 arbitrary values | GASTRIC TOLERABILITY ([4]; 10 mg/kg i.p.): 3.5 arbitrary values | ANTIARTHRITIC ACTIVITY (%) ([5]; 5 mg/kg i.p.): 40% | ANTIARTHRITIC ACTIVITY (%) ([5]; 10 mg/kg i.p.): 55% | SPLEEN weight [6]: 642 ± 32 mg | THYMUS weight [6]: 185 ± 17 mg | 133Xe clearance (%) [6]: 33% | BLOOD PRESSURE [7]: 115* per-cent | HEART RATE (%) [7]: 89* %
